This assay is described as follows: HPLC studies of reaction kinetics of tetrazine prodrugs with cyclooctyne alkynes (Kobs, second-order rate constant k2). The format is physicochemical. Particulars: for Kobs: prodrug 25 μM. The protocol:
Stock solution preparation. Each of the tetrazine prodrugs (compounds 1b, 1c, and 1d) was dissolved in DMSO to afford a 500-μM stock solution. Each of the alkynes (compounds 2a, 2b, 2c, and 2d) was dissolved in DMSO to afford a 50-mM stock solution. Doxorubicin (Dox) and dansylamino compound (DA) 1.1b were each dissolved in DMSO to afford 1-mM stock solutions.
HPLC method A.: mobile phase A (10 mM NaH2PO4 in water, pH=5.0) and mobile phase B (ACN), flow rate: 1 mL/min, running time: 30 min, the gradient elution method: 25% B from 0 to 6 min, 25% to 50% B from 6 to 8 min, 50% B from 8 to 15 min, 50% to 99% B from 15 to 20 min, 99% B from 20 to 25 min, 99% to 25% B from 25 to 30 min. Detection wavelength: 256 nm. Column: Waters C18 3.5 μM, 4.6×100 mm. Injection volume: 20 μL.
HPLC method B: mobile phase A (10 mM NaH2PO4 in water, pH=5.0) and mobile phase B (ACN), flow rate: 1 mL/min, running time: 30 min, the gradient elution method: 30% B from 0 to 6 min, 30% to 50% B from 6 to 8 min, 50% B from 8 to 15 min, 50% to 99% B from 15 to 20 min, 99% B from 20 to 25 min. 99% to 30% B from 25 to 30 min. Detection wavelength 1: 256, detection wavelength 2: 337 nm. Column: Waters C18 3.5 μM, 4.6×100 mm. Injection volume: 20 μL.
General procedures HPLC studies of reaction kinetics. To three 20-ml vials with 9 mL PBS were added a solution of tetrazine prodrug (500 μL, 500 μM). 350 μL, 300 μL and 250 μL DMSO were added to vial respectively, and then 150 μL, 200 μL and 250 μL of the alkyne solution (50 mM in DMSO) were added to the vials to afford final concentrations of alkyne 0.75 mM, 1 mM and 1.25 mM in PBS (10% DMSO, 25 μM prodrug) respectively. The reaction was stirred at r.t or 37° C. respectively. Every 30 min about 500 μL reaction mixtures were taken out and 20 μL of them were injected into the HPLC by the autosampler; the rest of them were poured back to the reaction mixture. (Note: In the cases of prodrugs 1d or 1b reacting with alkyne 2d at 37° C., the final concentrations of 2d in the kinetic studies were 250 μM, 300 μM and 350 μM).
Determination of second-order rate constants. The reaction rate constant, kobs, was calculated for each concentration of the alkyne by fitting the prodrug areas versus time using eq. 1: Y=A exp(−kobst) eq. 1 where Y is the prodrug area, and t is time. The pseudo-first-order rate constant, kobs, was then plotted against the concentration of alkyne to yield the second-order rate constant using eq 2: kobs=k2[Alkyne] eq. 2 where k2 is the second-order rate constant.

This note sets out measurements from patent publication US11607458B2 (Georgia State University Research Foundation, Inc, priority 2017, dated 2023).

Regarding `COc1cccc2c1C(=O)c1c(O)c3c(c(O)c1C2=O)CC(O)(C(=O)CO)CC3OC1CC(NC(=O)c2nnc(-c3ccc(OCc4cn(CCCCCCCCC[P+](c5ccccc5)(c5ccccc5)c5ccccc5)nn4)cc3)nn2)C(O)C(C)O1` (centres unmarked) [1c], the Kobs (37° C., alkyne 2b 0.75 mM, Expt. 1) is 0.711 h⁻¹; the Kobs (37° C., alkyne 2b 0.75 mM, Expt. 2) is 0.701 h⁻¹; the Kobs (37° C., alkyne 2b 0.75 mM, Expt. 3) was found to be 0.714 h⁻¹; the Kobs (37° C., alkyne 2b 1.00 mM, Expt. 1) came out at 0.921 h⁻¹; the Kobs (37° C., alkyne 2b 1.00 mM, Expt. 2) is 0.902 h⁻¹; the Kobs (37° C., alkyne 2b 1.00 mM, Expt. 3) stood at 0.871 h⁻¹. In addition, the Kobs reads like this: (37° C., alkyne 2b 1.25 mM, Expt. 1) 1.21 h⁻¹; (37° C., alkyne 2b 1.25 mM, Expt. 2) 1.15 h⁻¹; (37° C., alkyne 2b 1.25 mM, Expt. 3) 1.09 h⁻¹; (r.t, alkyne 2b 0.75 mM, Expt. 1) 0.296 h⁻¹; (r.t, alkyne 2b 0.75 mM, Expt. 2) 0.305 h⁻¹; (r.t, alkyne 2b 0.75 mM, Expt. 3) 0.291 h⁻¹. Further, the Kobs runs as follows: (r.t, alkyne 2b 1.00 mM, Expt. 1) 0.331 h⁻¹; (r.t, alkyne 2b 1.00 mM, Expt. 2) 0.356 h⁻¹; (r.t, alkyne 2b 1.00 mM, Expt. 3) 0.359 h⁻¹; (r.t, alkyne 2b 1.25 mM, Expt. 1) 0.445 h⁻¹; (r.t, alkyne 2b 1.25 mM, Expt. 2) 0.465 h⁻¹; (r.t, alkyne 2b 1.25 mM, Expt. 3) 0.474 h⁻¹. The “k2 at 37° C. (second order rate constant)” value (alkyne 2b, 37° C., PBS containing 10% DMSO, n = 3) was 0.25 ± 0.05 M⁻¹ s⁻¹. The “k2 at r.t (second order rate constant)” value (alkyne 2b, r.t, PBS containing 10% DMSO, n = 3) was 0.091 ± 0.013 M⁻¹ s⁻¹.
